Reference: patent publication US20080280810A1, “PEPTIDES HAVING AFFINITY FOR BODY SURFACES” (priority 2006, published 2008)
Each block holds one molecule with its values, some of them ahead of it.

Key:
[1] = Phage ELISA, bovine enamel binding assay; details: over 10^10 pfu purified phage, anti-M13 HRP conjugate, TMB, no phage control 0.112
Experimental: (§1) A total of 11 selected phage candidates (Example 32) was used in a phage ELISA experiment. Purified phage lysates were used for binding to the enamel blocks using an anti-M13 phage antibody conjugated to horseradish-peroxidase, followed by the addition of chromogenic agent TMB, obtained from Pierce Biotechnology (Rockford, Ill.). The plates were read at A450 nm.
(§2) For each phage candidate to be tested, the polished and unpolished enamel blocks were incubated for 1 h at room temperature with 200 μL of blocking buffer, consisting of 2% non-fat dry milk (Schleicher & Schuell, Inc.) in TBS. The blocking buffer was removed by aspirating the liquid out of each tube. The tube was rinsed 6 times with wash buffer consisting of TBST-0.05%. The wells were filled with 200 μL of TBST-0.5% containing 1 mg/mL BSA and then 10 μL (over 10^10 pfu) of purified phage stock was added. The samples were incubated at room temperature for 60 min with slow shaking. The non-binding phage was removed by washing 6 times with TBST-0.5%. Then, 100 μL of horseradish peroxidase/anti-M13 antibody conjugate (Amersham USA, Piscataway, N.J.), diluted 1:500 in the blocking buffer, was added and incubated for 1 h at room temperature. The conjugate solution was removed and was washed 6 times with TBST-0.5%. TMB substrate (200 μL), obtained from Pierce Biotechnology (Rockford, Ill.) was added to each well and the color was allowed to develop for 5 to 30 min, typically for 10 min, at room temperature. Then, stop solution (200 μL of 2 M H2SO4) was added to each well and the solution was transferred to a 96-well plate and the A450 was measured using a microplate spectrophotometer (Molecular Devices, Sunnyvale, Calif.). BoEn means bovine enamel and BoEn P means polished bovine enamel.

[2] = Phage ELISA, bovine polished enamel binding assay; details: over 10^10 pfu purified phage, anti-M13 HRP conjugate, TMB, no phage control 0.193
Experimental: as §1, §2

[3] = Color retention after shampoo treatment, peptide as sealant with Acid Red 33 dye; set-up: species or system human; details: 0.50 wt % Acid Red 33, peptide 0.25 wt %, 30 min contact, after one shampoo treatment; vs uncolored hair; larger = better color retention; dye alone 19.63
Experimental: The peptides used in this Example were prepared as described in Examples 1-3. The color retention was quantified using a spectrophotometric measurement technique.
A peptide given as SEQ ID NO:41, SEQ ID NO:42, or SEQ ID NO:43 (38 mg), produced via fermentation as described in Examples 1-3, was added to 15 g of an aqueous 0.50 wt % solution of Acid Red 33 (Abbey Color, Philadelphia, Pa.) and the solution was allowed to stir for 1 h. A natural white hair tress (1 cm wide, potted, International Hair Importers & Products Inc., Bellerose, N.Y.) was inserted into a 15 mm×125 mm test tube and 13 mL of the peptide/dye mixture was injected into the test tube. The hair tress was immersed in contact with the colorant solution for 30 min and the colorant solution was agitated using a magnetic stirrer. The tress was removed, allowed to drip dry, and then air dried for 30 min.
The hair tress was then subjected to a water rinse using copious amounts of deionized water, followed by a shampoo treatment with embrocation for 30 seconds. The shampoo treatment involved the application of Pantene Pro-V Sheer Volume shampoo (Proctor & Gamble, Cincinnati, Ohio) to the hair as follows. A quarter-sized drop of the shampoo was distributed evenly over the hair tress and then was massaged aggressively into the hair for 30 sec, after which the hair tress was rinsed with water to remove the shampoo. The hair tress was then dried at room temperature. The entire procedure described above was repeated without the addition of the hair-binding peptide to serve as a control.
The color intensity after the shampoo treatment was measured using an X-Rite® SP78™ Sphere Spectrophotometer (X-Rite, Inc., Grandville, Mich.), by placing the colored hair sample into the photosensor and calculating L*, a* and b* parameters representing the photometer response. An initial baseline L* value was measured for the uncolored hair and all measurements were the average of three individual determinations. Delta E values were calculated using equation 1 below: […]

[4] = Co-application of multi-block peptide with semi-permanent dye (Arianor Ebony), color retention; set-up: species or system human; key: ΔE of peptide sample minus peptide-free control; larger = better retention; details: difference in Delta E between peptide sample and peptide free control after 3 embrocation cycles (about 12 manual shampoos); pH 8.5-9.0; >2 benefit, >4 substantial benefit
Experimental: (§3) A 0.5% aqueous solution of Arianor Ebony (Sensient Technologies Corp, Milwaukee, Wis.) containing 3% benzyl alcohol and 0.05% diazolidinyl urea (biocide) was prepared. Dye insolubles were removed by filtration and the pH of the dye solution was adjusted to 8.50-9.0, using ethanolamine.
(§4) Approximately 1 mL of the dye solution was added to selected wells of a 24-well plate (Thomson Instrument Co., Oceanside, Calif.; part # 931565). A multi-block peptide (see Table 12) was dissolved in a solution consisting of 3 wt % benzyl alcohol and 95 wt % water to yield a peptide concentration of 2 wt % or approximately 20 mg/mL. The pH was adjusted to 8.5-9.0 using ethanolamine. The peptide solution was then pipetted into test wells containing dye solution in the amount of 1 mL or 0.2 mL respectively. The total volume in each test well was then adjusted to 2 mL where necessary using 3% aqueous benzyl alcohol (pH adjusted to 8.5-9.0 with ethanolamine). Peptide free controls consisted of 1 mL of dye solution diluted to 2 mL with the pH adjusted aqueous benzyl alcohol solution.
(§5) Baseline […] readings were made on one inch long tresses (see below) using an X-RITE® SP78™ Sphere Spectrophotometer (X-Rite, Inc., Grandville, Mich.), by placing the hair tress into the photosensor and calculating L*, a* and b* parameters representing the photometer response. All measurements were the average of three individual determinations.
(§6) The tresses (potted on one end with resin) of natural white, 85% gray or regular bleached hair (International Hair Importers and Products, Bellerose, N.Y.) were immersed in the peptide/dye solution and the entire well plate was agitated on a VORTEX-GENIE® 2 Mixer (Scientific Industries, Bohemia, N.Y.) at a speed setting of 1 for 30 minutes. The tresses were removed from the wells, rinsed for 30 seconds under flowing deionized water and then air dried.
(§7) The following complement of beads was then added to each well containing a hair tress: (8 beads in all; 4 Novagen Coli Rollers Plating Beads—sterilized (EMD Biosciences, San Diego, Calif.; Catalog No. 71013), 2 BioSpec 6.35 mm glass beads (BioSpec Products, Bartlesville, Okla.; Catalog No. 11079635), and 2 BioSpec 3.2 mm Stainless Steel Bead (Catalog No. 11079132ss).
(§8) Then 2.5 mL of aqueous 50% Pantene Pro V® shampoo (Proctor & Gamble Co., Cincinnati, Ohio) was pipetted into each well. The plate was placed on a VWR® VX-2500 Multi-tube Vortexer (VWR, West Chester, Pa.) for 5 minutes to simulate shampooing with embrocation. The hair tresses were then rinsed under flowing deionized water and air dried. This cycle was repeated two more times except that the length of time was 10 minutes for both subsequent embrocation cycles. (This treatment was previously determined to simulate approximately 12 manual shampoo cycles.) At the conclusion of the third embrocation cycle L*, a* and b* values were measured and Delta E values (ΔE) were calculated using equation 1 below:
(§9) where L*=the lightness variable and a* and b* are the chromaticity coordinates of CIELAB colorspace as defined by the International Commission of Illumination (CIE) (Minolta, Precise Color Communication—Color Control From Feeling to Instrumentation, Minolta Camera Co., 1996).
(§10) The Delta E value (ΔE) indicates color retention relative to the non-dyed hair and larger Delta E values indicate better performance. Values listed in the table represent the difference in Delta E values between the peptide-containing sample and the peptide free control. This difference is indicative of color retention after shampoo or water rinse treatments and positive values indicate better performance relative to the peptide free controls (Table 12).

[5] = as above; set-up: species or system human; details: difference in Delta E between peptide sample and peptide free control after 3 embrocation cycles (about 12 manual shampoos); pH 8.5-9.0; >2 benefit, >4 substantial benefit
Experimental: as §3, §4, §5, §6, §7, §8, §9, §10

[6] = Charged multi-block peptide applied to dyed hair (Arianor Sienna Brown, Basic Brown 17) as protective sealant, color loss; set-up: species or system human; key: ΔE color loss vs peptide-free control; ≥3 units = meaningful difference
Experimental: A 0.5% aqueous Arianor Sienna Brown (Basic Brown 17; Sensient Technologies Corp, Milwaukee, Wis.) solution, containing 3% benzyl alcohol and 0.05% diazolidinyl urea (biocide) was prepared. This dye solution was divided into two equal volumes, one unmodified at pH4 and a second portion adjusted to pH ranged from 8.50 to 9.0, using ethanolamine.
Minitresses (1 inch long) of natural white hair (International Hair Importers and Products, Bellerose, N.Y.) were immersed into the acidic or basic dye solutions for 30 minutes, water rinsed and then air dried overnight. The tresses were then cut into individual sections weighing 30-75 mg each. L*, a*, b* values for individual dyed hair tresses were then measured using a spectrophotometer.
Aqueous peptide solutions varying in concentration were adjusted by addition of ethanolamine to pH […] or made slightly basic (pH 8.5-9.0). The 3% benzyl alcohol diluent was also pH adjusted in the same fashion.
as §7, with “Each cavity of a well plate (Thomson Instrument Co. part no. 931565, 24-10 ml wells), contained the assortment” for “The following complement”, “beads” for “beads was then added to each well containing a hair tress:”
Target peptide and diluent were added using an automatic pipette. Controls without peptide were made using pH-adjusted diluent only. After several minutes of mixing (VORTEX-GENIE® 2, Scientific Industries, Bohemia, N.Y.) a small dyed hair tress was added to each well and stirred for 30 minutes on the vortex mixer. When stirring was complete, the hair tresses were removed from the wells and rinsed under running deionized water for 20-30 seconds.
The wet hair tresses were inserted into a modified well plate into which holes had been drilled to allow them to be air dried. Once the tresses were dried, colorimetric readings were taken for color loss after water rinse. Hair tresses were reinserted into their respective wells along with beads and 2.5 mL of aqueous 50% Pantene Pro V® shampoo was pipetted onto the hair. The plate was placed into a VWR® VX-2500 Multi-tube Vortexer (VWR, West Chester, Pa.) for 5-15 minutes to simulate shampooing with embrocation. The hair tresses were then rinsed under flowing deionized water and air dried. This cycle was repeated according to the number of simulated embrocation cycles desired. Colorimetric data for color loss was compiled and plotted against peptide free controls. A difference of at least 3 Delta E units verses controls was judged to be sufficient for differentiating peptide performance verses peptide free controls.

O.D. at 450 nm [1]: 0.665
Molecule: GYCLRGDEPAVCSG [BoEn P3]

O.D. at 450 nm [2]: 0.568
Molecule: VGTMKQHPTTTQPPRVSATN [BoEn 9]

O.D. at 450 nm [1]: 0.641
Molecule: EPPTRTRVNNHTVTVQAQQH [BoEn P2]

Molecule: KF11-GGG-GHGHQKQHGLGHGHKHGHGHGHGHGK (PNTSQLSTGGGGHGHQKQHGLGHGHKHGHGHGHGHGK; Peptide having affinity for hair) [HC 81]
Delta E [3]: 31.57
ΔE Retention Ebony Dye Regular Bleached Hair [4]: −0.1
ΔE Retention Ebony dye with Natural White Hair [4]: 0.6
ΔE Retention Ebony Dye with 85% Gray Hair [5]: 7.58

O.D. at 450 nm [2]: 3.942
Molecule: YSETPNDQKPNPHYKVSGTK [BoEn 10]

O.D. at 450 nm [1]: 0.83
Molecule: NTCQPTKNATPCSA [BoEn P6]

O.D. at 450 nm [1]: 0.797
Molecule: NFCETQLDLSVCTV [BoEn P5]

O.D. at 450 nm [2]: 0.892
Molecule: SDCTAGLVPPLCAT [BoEn 7]

O.D. at 450 nm [1]: 2.02
Molecule: THNMSHFPPSGHPKRTAT [BoEn P8]

Molecule: SSNYNYNYNYQYSSR-EGEGER (SSNYNYNYNYQYSSREGEGER; Peptide having affinity for hair) [Dye-1 Anionic]
ΔE Loss ([6]; pH 4.5, 12 shampoo equivalents): 1.93
ΔE Loss ([6]; pH 8.8, 12 shampoo equivalents): 0.34

O.D. at 450 nm [2]: 2.38
Molecule: NTCATSPNSYTCSN [BoEn 6]

Molecule: SSNYNYNYNYQYSSR-KRKRKD (SSNYNYNYNYQYSSRKRKRKD; Peptide having affinity for hair) [Dye-1 Cationic]
ΔE Loss ([6]; pH 4.5, 25 shampoo equivalents): 6
ΔE Loss ([6]; pH 8.7, 25 shampoo equivalents): 3.22

O.D. at 450 nm [2]: 1.402
Molecule: AANPHTEWDRDAFQLAMPPK [BoEn 1]

Molecule: SSNYNYNYNYQYSSR (Peptide having affinity for hair) [Dye-1, reference compound]
ΔE Loss ([6]; pH 3.9, 12 shampoo equivalents): 14

O.D. at 450 nm [2]: 0.944
Molecule: LNDQRKPGPPTMPTHSPAVG [BoEn 5]

B1: PG-PMMA9-GAG-PMMA9-GGSGPGSGG-KF11-GS(KGGGS)4-KF11-GGPWKK (peptide)
chain: PGIDTFYMSTMSHSGAGIDTFYMSTMSHSGGSGPGSGGNTSQLSTGSKGGGSKGGGSKGGGSKGGGSNTSQLSTGGPWKK
modifications: Peptide having affinity for hair
ΔE Loss ([6]; pH 5.7, 12 shampoo equivalents): 11.41

B2: PG-PMMA4A-GAG-PMMA4A-GGSGPGSGG-KF11-GGG-KF11-GGPKK (peptide)
chain: PGHTHHDTHKPWPTDAHRNSSVGAGHTHHDTHKPWPTDAHRNSSVGGSGPGSGGNTSQLSTGGGNTSQLSTGGPKK
modifications: Peptide having affinity for hair
ΔE Loss ([6]; pH 5.1, 12 shampoo equivalents): 11.56
ΔE Loss ([6]; pH 8.8, 12 shampoo equivalents): 6.95
